For five compounds, inhibition and Stability results are on record in ChEMBL document CHEMBL4480359, “Phosphotyrosine prodrugs: design, synthesis and anti-STAT3 activity of ISS-610 aryloxy triester phosphoramidate prodrugs” (Medchemcomm, 2019).

Active and inactive are the calls of the source. No cut-off for these calls is given here.

Data set [1] addresses Signal transducer and activator of transcription 3 (Homo sapiens) (UniProt P40763). Briefly: Inhibition of STAT3 dimerization in human MDA-MB-231 cells assessed as down-regulation of Bcl-xl protein expression at 0.1 to 100 uM after 24 hrs by Western blot analysis. In kind it is cell-based. A general note: Immunoblotting shows a protein as a band on a membrane.
The target is the same in data set [2]. The data set is described as follows: Inhibition of STAT3 dimerization in human MDA-MB-231 cells assessed as down-regulation of survivin protein expression at 0.1 to 100 uM after 24 hrs by Western blot analysis. The data set is classed as cell-based.
Data set [3] shares this target. Briefly: Inhibition of STAT3 dimerization in human MDA-MB-231 cells assessed as down-regulation of survivin protein expression at 30 uM after 24 hrs by Western blot analysis. The data set is classed as cell-based.
Data set [4] is described as follows: Stability in human serum assessed as phosphorus peak formation measured over 12 hrs by [31P]-NMR analysis. In kind it is ADME, cell-free.
The nature of data set [5]: Stability in human serum incubated for 12 hrs by mass spectrometric analysis. In kind it is ADME, cell-free.

Signal transducer and activator of transcription 3 (Homo sapiens), sequence (P40763 whole entry): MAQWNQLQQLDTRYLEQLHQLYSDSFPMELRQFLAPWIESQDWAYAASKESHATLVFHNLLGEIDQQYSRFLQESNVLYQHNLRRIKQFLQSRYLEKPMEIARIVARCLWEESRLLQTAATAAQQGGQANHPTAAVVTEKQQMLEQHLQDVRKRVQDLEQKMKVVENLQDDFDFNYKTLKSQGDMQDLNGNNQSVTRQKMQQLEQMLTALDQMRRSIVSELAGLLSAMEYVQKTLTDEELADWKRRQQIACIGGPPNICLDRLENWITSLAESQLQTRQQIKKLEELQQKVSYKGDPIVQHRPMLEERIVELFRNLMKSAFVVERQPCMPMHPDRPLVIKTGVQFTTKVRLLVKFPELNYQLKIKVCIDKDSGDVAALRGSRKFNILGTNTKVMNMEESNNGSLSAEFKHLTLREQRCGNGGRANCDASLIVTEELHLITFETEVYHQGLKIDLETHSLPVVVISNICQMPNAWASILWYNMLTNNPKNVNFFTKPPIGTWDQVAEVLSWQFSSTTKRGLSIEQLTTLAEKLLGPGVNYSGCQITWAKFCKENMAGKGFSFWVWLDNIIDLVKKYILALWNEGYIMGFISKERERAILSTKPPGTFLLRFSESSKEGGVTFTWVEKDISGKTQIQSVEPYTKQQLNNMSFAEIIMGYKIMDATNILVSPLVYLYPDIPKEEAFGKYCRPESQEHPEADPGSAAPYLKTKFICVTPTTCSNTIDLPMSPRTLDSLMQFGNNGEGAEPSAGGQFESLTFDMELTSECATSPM

Consider `COC(=O)[C@H](CC(C)C)NC(=O)[C@H](Cc1ccc(OP(=O)(N[C@@H](C)C(=O)OC(C)C)Oc2cccc3ccccc23)cc1)NC(=O)c1ccc(C#N)cc1` (some centres undefined), for which the inhibition entry in data set [1], in data set [2] and in data set [3] was “Active” each time. Moreover, the Stability entry in data set [4] and in data set [5] was “Stable” each time.
As for `COC(=O)[C@H](CC(C)C)NC(=O)[C@H](Cc1ccc(OP(=O)(N[C@@H](C)C(=O)OCc2ccccc2)Oc2cccc3ccccc23)cc1)NC(=O)c1ccc(C#N)cc1` (some centres undefined), the inhibition result in data set [1] and in data set [2] was “Active” throughout.
With `COC(=O)[C@H](CC(C)C)NC(=O)[C@H](Cc1ccc(OP(=O)(O)O)cc1)NC(=O)c1ccc(C#N)cc1`, the inhibition result in data set [1] and in data set [2] was “inactive” each time.
With `CC(C)C[C@H](NC(=O)[C@H](Cc1ccc(OP(=O)(O)O)cc1)NC(=O)c1ccc(C#N)cc1)C(=O)O`, the inhibition entry in data set [1] and in data set [2] was “inactive” throughout.
As to `COC(=O)[C@H](C)NP(=O)(Oc1ccc(C[C@H](NC(=O)c2ccc(C#N)cc2)C(=O)N[C@@H](CC(C)C)C(=O)OC)cc1)Oc1cccc2ccccc12` (some centres undefined), the inhibition entry in data set [1], in data set [2] and in data set [3] was “Active” throughout.
